From patent US11034700B2, “Substituted pyrrolidine compound and use thereof” (Takeda Pharmaceutical Company Limited, priority 2017, dated 2021)

Molecular target: T1, human OX2 receptor (Homo sapiens, UniProt O43614)
T1 construct: expressed in transfected cells
T1 sequence (O43614 1-444): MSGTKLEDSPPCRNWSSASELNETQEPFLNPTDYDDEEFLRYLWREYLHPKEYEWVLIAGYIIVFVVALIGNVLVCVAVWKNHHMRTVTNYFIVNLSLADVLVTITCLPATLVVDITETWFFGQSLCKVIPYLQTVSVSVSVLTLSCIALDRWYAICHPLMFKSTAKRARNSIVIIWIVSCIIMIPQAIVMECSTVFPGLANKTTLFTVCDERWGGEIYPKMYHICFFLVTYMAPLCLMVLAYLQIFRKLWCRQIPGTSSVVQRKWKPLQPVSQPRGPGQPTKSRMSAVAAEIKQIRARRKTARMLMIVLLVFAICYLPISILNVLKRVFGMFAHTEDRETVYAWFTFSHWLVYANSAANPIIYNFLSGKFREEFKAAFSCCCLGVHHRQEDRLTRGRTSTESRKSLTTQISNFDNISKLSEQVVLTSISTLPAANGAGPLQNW
Experiment: Measurement of orexin type 2 receptor agonist activity (Fluo-4 calcium fluorescence, FDSS)
Type: cell-based
Conditions: compound at 3 μM; CHO cells forcibly expressing human OX2 receptor; DMSO = 0%, orexin A (human) 10 nM = 100%
Excerpt: Experimental Example 1: Obtainment of Cell Stably Expressing Human Orexin Type 2 Receptor (hOX2R)
To obtain a cell clone stably expressing human orexin type 2 receptor, human orexin type 2 receptor cDNA was inserted into pcDNA3.1(+) plasmid vector (Invitrogen), and a plasmid DNA for expression of human orexin type 2 receptor (pcDNA3.1(+)/hOX2R) was cloned. The plasmid DNA was introduced into CHO-dhfr cell by an electroporation method, and human orexin type 2 receptor expressing clone cells were obtained by limiting dilution method by using G418 drug resistance as a selection marker.
Experimental Example 2: Measurement of Orexin Type 2 Receptor Agonist Activity
CHO cells forcibly expressing human OX2 receptor were seeded in each well of 384 well black transparent bottom plate (BD Falcon) at 7,500 cells/well, and cultured for one day in a 5% CO2 incubator at 37° C. After removal of the medium in the cell plate, assay buffer A containing a calcium indicator (HESS (Life Technologies), 20 mM HEPES (Life Technologies), 0.1% BSA (Wako Pure Chemical Industries, Ltd.), 2.5 μg/mL Fluo-4 AM (DOJINDO Chemical), 0.08% Pluronic F127 (DOJINDO Chemical), 1.25 mM probenecid (DOJINDO Chemical)) was added at 30 μL/well. The plate was stood for 30 min in a 5% CO2 incubator at 37° C., and further stood at room temperature for 30 min. A test compound prepared by diluting with assay buffer B (HESS, 20 mM HEPES, 0.1% BSA) was added at 10 μL/well, and the fluorescence value was measured by FDSSμCELL (Hamamatsu Photonics K.K.) every one sec for 1 min, and thereafter every two sec for 1 min 40 sec. The activity (%) of the test compound was calculated assuming that variation in the fluorescence value when DMSO was added instead of the test compound was 0% […], and variation in the fluorescence value when orexin A (human) (PEPTIDE INSTITUTE, INC.) was added at the final concentration of 10 nM was 100% […]. The activity of each compound at the concentration of 3 μM was shown below.

Compound | OX2R agonist activity (3 μM, %) [%]
COc1ccc(N2CCCC3(CCCCO3)C2)cc1S(=O)(=O)Nc1cccc(O[C@H]2CCN(C(=O)c3c(C)cccc3C)C2)c1 (stereo partly drawn) [Example 41, N-(3-(((3S)-1-(2,6-dimethylbenzoyl)pyrrolidin-3-yl)oxy)phenyl)-2-methoxy-5-(1-oxa-8-azaspiro[5.5]undec-8-yl)benzenesulfonamide] | 97
COc1ccc(-c2cccc(C(=O)N(C)C)c2)cc1S(=O)(=O)Nc1cccc(O[C@H]2CCN(C(=O)c3cccc(C)c3)C2)c1 [Example 6, 4′-methoxy-N,N-dimethyl-3′-((3-(((3S)-1-(3-methylbenzoyl)pyrrolidin-3-yl)oxy)phenyl)sulfamoyl)biphenyl-3-carboxamide] | 101
Cc1cccc(C)c1C(=O)N1CC[C@H](Oc2cccc(NS(=O)(=O)c3cc(-c4cccc(C(=O)N(C)C)c4)ccc3F)c2)C1 [Example 35, 3′-((3-(((3S)-1-(2,6-dimethylbenzoyl)pyrrolidin-3-yl)oxy)phenyl)sulfamoyl)-4′-fluoro-N,N-dimethylbiphenyl-3-carboxamide] | 99
CCCS(=O)(=O)Nc1cccc(O[C@H]2CCN(C(=O)c3c(C)cccc3C)C2)c1 [Example 36, N-(3-(((3S)-1-(2,6-dimethylbenzoyl)pyrrolidin-3-yl)oxy)phenyl)propane-1-sulfonamide] | 23
COc1ccc(-c2cccc(C(=O)N(C)C)c2)cc1S(=O)(=O)Nc1cccc(O[C@H]2CCN(C(=O)C3(c4ccccc4)CC3)C2)c1 [Example 16, 4′-methoxy-N,N-dimethyl-3′-((3-(((3S)-1-((1-phenylcyclopropyl)carbonyl)pyrrolidin-3-yl)oxy)phenyl)sulfamoyl)biphenyl-3-carboxamide] | 99
COc1ccc(-c2cccc(C(=O)N(C)C)c2)cc1S(=O)(=O)Nc1cccc(O[C@H]2CCN(C(=O)c3c(C)cccc3C)C2)c1 [Example 10, 3′-((3-(((3S)-1-(2,6-dimethylbenzoyl)pyrrolidin-3-yl)oxy)phenyl)sulfamoyl)-4′-methoxy-N,N-dimethylbiphenyl-3-carboxamide] | 106
COc1ccc(-c2cccc(C(=O)N(C)C)c2)cc1S(=O)(=O)Nc1cccc(N(C)C2CCN(C(=O)c3cc(C)ccc3C)C2)c1 (centres unmarked) [Example 58, 3′-((3-((1-(2,5-dimethylbenzoyl)pyrrolidin-3-yl)(methyl)amino)phenyl)sulfamoyl)-4′-methoxy-N,N-dimethylbiphenyl-3-carboxamide] | 104
COc1ccc(N2CCCC(C(=O)N3CCCC3)C2)cc1S(=O)(=O)Nc1cccc(O[C@H]2CCN(C(=O)c3c(C)cccc3C)C2)c1 (stereo partly drawn) [Example 42, N-(3-(((3S)-1-(2,6-dimethylbenzoyl)pyrrolidin-3-yl)oxy)phenyl)-2-methoxy-5-(3-(pyrrolidin-1-ylcarbonyl)piperidin-1-yl)benzenesulfonamide] | 97
Cc1cccc(C)c1C(=O)N1CC[C@H](Oc2cccc(NS(=O)(=O)c3sccc3Cl)c2)C1 [Example 38, 3-chloro-N-(3-(((3S)-1-(2,6-dimethylbenzoyl)pyrrolidin-3-yl)oxy)phenyl)thiophene-2-sulfonamide] | 44
COc1ccc(N2CCCCC2=O)cc1S(=O)(=O)Nc1cccc(O[C@H]2CCN(C(=O)c3c(C)cccc3C)C2)c1 [Example 30, N-(3-(((3S)-1-(2,6-dimethylbenzoyl)pyrrolidin-3-yl)oxy)phenyl)-2-methoxy-5-(2-oxopiperidin-1-yl)benzenesulfonamide] | 89
COc1ccc(-c2cccc(C(=O)N(C)C)c2)cc1S(=O)(=O)Nc1cccc(O[C@H]2CCN(C(=O)c3c(C)cccc3C)C2)c1F [Example 71, 3′-((3-(((3S)-1-(2,6-dimethylbenzoyl)pyrrolidin-3-yl)oxy)-2-fluorophenyl)sulfamoyl)-4′-methoxy-N,N-dimethylbiphenyl-3-carboxamide] | 89
Cc1cccc(C)c1C(=O)N1CC[C@H](Oc2cccc(NS(=O)(=O)c3cccc(-c4cccc(C(=O)N(C)C)c4)c3)c2)C1 [Example 34, 3′-((3-(((3S)-1-(2,6-dimethylbenzoyl)pyrrolidin-3-yl)oxy)phenyl)sulfamoyl)-N,N-dimethylbiphenyl-3-carboxamide] | 94

The remaining lines, values ahead:

OX2R agonist activity (3 μM, %) [%] | Compound
66 | COc1ccccc1S(=O)(=O)Nc1cccc(O[C@@H]2CN(C(=O)c3cc(C)ccc3C)C[C@H]2OC)c1Cl (relative stereo) [Example 117, trans-N-(2-chloro-3-((1-(2,5-dimethylbenzoyl)-4-methoxypyrrolidin-3-yl)oxy)phenyl)-2-methoxybenzenesulfonamide]
102 | COc1ccccc1S(=O)(=O)Nc1cc(F)cc(O[C@@H]2CN(C(=O)c3cc(C)ccc3C)C[C@H]2OC)c1 (relative stereo) [Example 100, trans-N-(3-((1-(2,5-dimethylbenzoyl)-4-methoxypyrrolidin-3-yl)oxy)-5-fluorophenyl)-2-methoxybenzenesulfonamide]
60 | COc1ccccc1S(=O)(=O)Nc1cccc(O[C@@H]2CN(C(=O)c3cc(C)ccc3C)C[C@H]2O)c1 (relative stereo) [Example 114, trans-N-(3-((1-(2,5-dimethylbenzoyl)-4-hydroxypyrrolidin-3-yl)oxy)phenyl)-2-methoxybenzenesulfonamide]
101 | CO[C@@H]1CN(C(=O)c2cc(C)ccc2C)C[C@H]1Oc1cccc(NS(=O)(=O)c2ccccc2F)c1 [Example 82, N-(3-(((3R,4R)-1-(2,5-dimethylbenzoyl)-4-methoxypyrrolidin-3-yl)oxy)phenyl)-2-fluorobenzenesulfonamide]
80 | CC[C@@H]1CN(C(=O)c2cc(C)ccc2C)C[C@H]1Oc1cccc(NS(=O)(=O)c2ccccc2OC)c1 (relative stereo) [Example 93, trans-N-(3-((1-(2,5-dimethylbenzoyl)-4-ethylpyrrolidin-3-yl)oxy)phenyl)-2-methoxybenzenesulfonamide]
67 | COc1ccccc1S(=O)(=O)Nc1cccc(O[C@@H]2CN(C(=O)c3cc(C)ccc3C)C[C@H]2C#N)c1 (relative stereo) [Example 126, trans-N-(3-((4-cyano-1-(2,5-dimethylbenzoyl)pyrrolidin-3-yl)oxy)phenyl)-2-methoxybenzenesulfonamide]
78 | CO[C@@H]1CN(C(=O)c2cc(C)ccc2C)C[C@H]1Oc1cccc(NS(=O)(=O)c2ccccc2)c1 (relative stereo) [Example 65, trans-N-(3-((1-(2,5-dimethylbenzoyl)-4-methoxypyrrolidin-3-yl)oxy)phenyl)benzenesulfonamide]
76 | CCCS(=O)(=O)Nc1cccc(O[C@@H]2CN(C(=O)c3cc(C)ccc3C)C[C@H]2OC)c1 [Example 79, N-(3-(((3R,4R)-1-(2,5-dimethylbenzoyl)-4-methoxypyrrolidin-3-yl)oxy)phenyl)propane-1-sulfonamide]
103 | COc1ccc(-c2cccc(C(=O)N(C)C)c2)cc1S(=O)(=O)Nc1cccc(O[C@@H]2CN(C(=O)c3cc(C)ccc3C)C[C@@H]2OC)c1 (relative stereo) [Example 59, cis-3′-((3-((1-(2,5-dimethylbenzoyl)-4-methoxypyrrolidin-3-yl)oxy)phenyl)sulfamoyl)-4′-methoxy-N,N-dimethylbiphenyl-3-carboxamide]
101 | COc1ccccc1S(=O)(=O)Nc1cccc(O[C@@H]2CN(C(=O)c3cc(C)ccc3C)C[C@H]2OC)c1 (relative stereo) [Example 56, trans-N-(3-((1-(2,5-dimethylbenzoyl)-4-methoxypyrrolidin-3-yl)oxy)phenyl)-2-methoxybenzenesulfonamide]
96 | CO[C@@H]1CN(C(=O)c2cc(C)ccc2C)C[C@H]1Oc1cccc(NS(=O)(=O)c2sccc2Cl)c1 [Example 84, 3-chloro-N-(3-(((3R,4R)-1-(2,5-dimethylbenzoyl)-4-methoxypyrrolidin-3-yl)oxy)phenyl)thiophene-2-sulfonamide]
